Source: US12612403B2, “Nitrogen-containing heterocyclic derivative inhibitor, and preparation method therefor and use thereof” (SHANGHAI HANSOH BIOMEDICAL CO., LTD., priority 2024, dated 2026)

System: PCSK9 secreted by HepG2 cells
Assay: Effect on the concentration of PCSK9 secreted by HepG2 cells (ELISA)
Assay type: cell-based
Settings: Homo sapiens, 48 hours, PCSK9 in culture medium by ELISA
Method: 1. Experimental objective: To detect the inhibitory effect of the compounds on PCSK9.
2. Experimental method: • 1) HepG2 cell strain was cultured in the complete culture medium at 37° C., 5% CO2 to 70-90% confluence. • 2) The cells were digested and resuspended in the experimental culture medium, inoculated at 25,000 cells/well/200 μL in a 96-well cell culture plate, and cultured at 37° C. and 5% CO2 for 20-24 hours. • 3) The culture medium was removed from the cell culture plate, and the cell culture plate was washed once by adding 200 ul of the experimental culture medium to each well. • 4) Preparation of positive control compound and compound to be tested: the positive control compound and the compound to be tested were diluted on the compound plate. • 5) The diluted compound was added to the cell culture plate at 250 μL per well and incubated at 37° C. and 5% CO2 for 48 hours. • 6) The cell culture medium was collected at 200 μL per well and cryopreserved at −80° C. for later use. • 7) A sample of the cell culture medium was taken from the −80° C. cryopreservation condition, dissolved, vortexed, and centrifuged for later use. • 8) Preparation of standard curve: corresponding volumes of Dilution buffer were successively added to respective standard tubes, and in the order of the concentrations of 10, 5, 2.5, 1.25, 0.625, 0.313, 0.16, 0 ng/mL, the standard was diluted in series by taking the corresponding volume from the original tube or the last concentration tube. • 9) Preparation of washing liquid: 10x Wash buffer was diluted into 1x with Milli-Q for later use. • 10) According to the standard curve wells and sample wells set according to a plate map, 100 μL/well of the corresponding standards and culture medium samples were added to the wells, with 2 replicate wells. A self-adhesive seal was applied, the plate was placed on a plate shaker at room temperature, gently shaken, uniformly mixed, and incubated for 1 hour. • 11) The plate was placed on the plate washer, the washing liquid was set to 350 μL per well, and the plate was washed 4 times repeatedly. • 12) 100 μL/well of an HRP-conjugated detection antibody was added, a self-adhesive seal was applied, and the plate was placed on the plate shaker, well mixed uniformly, and incubated for 1 hour. • 13) The plate was placed on the plate washer, the washing liquid was set to 350 μL per well, and the plate was washed 4 times repeatedly. • 14) 100 μL/well of Substrate reagent was added, and the plate was placed in the dark, applied with a self-adhesive seal, placed on the plate shaker, well mixed uniformly, and incubated for 10-20 minutes. • 15) 100 μL of Stop solution (1N H2SO4) was added to each well and mixed uniformly. • 16) The optical density (OD) value in each well was measured in sequence at a wavelength of 450 nm by the microplate reader. Detection was carried out within 30 min after the reaction was stopped.
3. Experimental data processing method: After the OD values were read by the microplate reader, the OD value of the 0-concentration standard in the standard group was subtracted from the OD values of the standards, control group, and samples to obtain the actual OD values for these wells. A standard curve was plotted with Graphpad and the concentration of the sample was calculated. If the dilution was performed during the sample detection, the calculated sample concentration was necessarily multiplied by the corresponding dilution ratio in the final calculation, which was the actual concentration of the sample. Inhibition rate=(actual concentration in control−actual concentration in sample)/actual concentration in control*100. According to the inhibition rates corresponding to the different concentrations, IC50 was derived by Graphpad.

Structure (SMILES)	IC50 [µM]
O=C1c2cccc(C(F)(F)F)c2CN1c1ccc(N[C@H]2CC[C@H](Nc3nc4cc(F)ccn4n3)C2)nc1 [Example 26]	22.8
O=C1c2ncc(F)cc2CN1c1ccc(N[C@H]2CC[C@H](Nc3nc4cc(C(F)(F)F)ccn4n3)C2)nc1 [Example 27, 3-Fluoro-6-(6-(((1S,3S)-3-((7-(trifluoromethyl)-[1,2,4]triazolo[1,5-a]pyridin-2-yl)amino)cyclopentyl)amino)pyridin-3-yl)-5,6-dihydro-7H-pyrrolo[3,4-b]pyridin-7-one]	12
CC(C)(C)c1ccc2c(n1)C(=O)N(c1ccc(N[C@H]3CC[C@H](Nc4nc5cc(F)ccn5n4)C3)nc1)C2 [Example 49, 2-(Tert-butyl)-6-(6-(((1S,3S)-3-((7-fluoro-[1,2,4]triazolo[1,5-a]pyridin-2-yl)amino)cyclopentyl)amino)pyridin-3-yl)-5,6-dihydro-7H-pyrrolo[3,4-b]pyridin-7-one]	2.7
Cc1cc2c(c(C)n1)CN(c1ccc(N[C@H]3CC[C@H](Nc4nc5cc(F)ccn5n4)C3)nc1)C2=O [Example 51, 2-(6-(((1S,3S)-3-((7-fluoro-[1,2,4]triazolo[1,5-a]pyridin-2-yl)amino)cyclopentyl)amino)pyridin-3-yl)-4,6-dimethyl-2,3-dihydro-1H-pyrrolo[3,4-c]pyridin-1-one]	21.3
O=C1N(c2ccc(N[C@H]3CC[C@H](Nc4nc5cc(F)ccn5n4)C3)nc2)CCC12CC2 [Example 54, 5-(6-(((1S,3S)-3-((7-fluoro-[1,2,4]triazolo[1,5-a]pyridin-2-yl)amino)cyclopentyl)amino)pyridin-3-yl)-5-azaspiro[2.4]heptan-4-one]	23.4
Cc1nccc2c1CN(c1ccc(N[C@H]3CC[C@H](Nc4nc5cc(C(F)(F)F)ccn5n4)C3)nc1)C2=O [Example 57, 4-methyl-2-(6-(((1S,3S)-3-((7-(trifluoromethyl)-[1,2,4]triazolo[1,5-a]pyridin-2-yl)amino)cyclopentyl)amino)pyridin-3-yl)-2,3-dihydro-1H-pyrrolo[3,4-c]pyridin-1-one]	1.7
O=C1N(c2ccc(N[C@H]3CC[C@H](Nc4nc5cc(C(F)(F)F)ccn5n4)C3)nc2)CCC12CC2 [Example 58, 5-(6-(((1S,3S)-3-((7-(trifluoromethyl)-[1,2,4]triazolo[1,5-a]pyridin-2-yl)amino)cyclopentyl)amino)pyridin-3-yl)-5-azaspiro[2.4]heptan-4-one]	11.1
Cc1cccnc1C(=O)Nc1ccc(N[C@H]2CC[C@H](Nc3nc4cc(C(F)(F)F)ccn4n3)C2)nc1 [Example 60]	27.4
O=C1c2cc(F)cnc2CN1c1ccc(N[C@H]2CC[C@H](Nc3nc4cc(C(F)(F)F)ccn4n3)C2)nc1 [Example 61, 3-fluoro-6-(6-(((1S,3S)-3-((7-(trifluoromethyl)-[1,2,4]triazolo[1,5-a]pyridin-2-yl)amino)cyclopentyl)amino)pyridin-3-yl)-6,7-dihydro-5H-pyrrolo[3,4-b]pyridin-5-one]	0.6
CN(Cc1ccc(N[C@H]2CC[C@H](Nc3nc4cc(C(F)(F)F)ccn4n3)C2)nc1)C(=O)c1ccccn1 [Example 62, N-methyl-N-(6-(((1S,3S)-3-((7-(trifluoromethyl)-[1,2,4]triazolo[1,5-a]pyridin-2-yl)amino)cyclopentyl)amino)pyridin-3-yl)methylpicolinamide]	17.6
CC(C)(O)c1cccn(-c2ccc(N[C@H]3CC[C@H](Nc4nc5cc(C(F)(F)F)ccn5n4)C3)nc2)c1=O [Example 63, 3-(2-hydroxypropan-2-yl)-6′-(((1S,3S)-3-((7-(trifluoromethyl)-[1,2,4]triazolo[1,5-a]pyridin-2-yl)amino)cyclopentyl)amino)-2H-[1,3′-bipyridine]-2-one]	26.5
N#Cc1cc2c(cn1)CN(c1ccc(N[C@H]3CC[C@H](Nc4nc5cc(C(F)(F)F)ccn5n4)C3)nc1)C2=O [Example 66, 1-carbonyl-2-(6-(((1S,3S)-3-((7-(trifluoromethyl)-[1,2,4]triazolo[1,5-a]pyridin-2-yl)amino)cyclopentyl)amino)pyridin-3-yl)-2,3-dihydro-1H-pyrrolo[3,4-c]pyridine-6-carbonitrile]	0.8
